The values that follow come from PMC11167311, “Revolutionizing GPCR–ligand predictions: DeepGPCR with experimental validation for high-precision drug discovery” (Briefings in Bioinformatics, 2024).

The target in assay [1] is T1, hGPR35 (Homo sapiens, UniProt Q9HC97).
T1 construct: expressed in transfected cells
The assay can be described thus: DMR antagonism (desensitization) assay in CHO-GPR35 cells, zaprinast challenge. It is filed as cell-based. The note with it: for GPR35 receptor activity (result in words): CHO-GPR35 cells, desensitization when stimulated by agonist zaprinast. As to the method: (§1) CHO-GPR35 cells were the same as our previously reported. CHO-GPR35 cells were cultured in an F12 medium supplemented with 10% FBS, penicillin (50 μg/ml), streptomycin (100 μg/ml) and zeocin (200 μg/ml) at 37°C under 5% CO2. HEK293 cells were purchased from the National Collection of Authenticated Cell Cultures (Shanghai, China) and cultured in DMEM medium supplemented with 10% FBS, penicillin (50 μg/ml) and streptomycin (100 μg/ml) and at 37°C under 5% CO2.
(§2) When the cells approached 90% confluence, they were seeded in 384-well biosensor plates with a density of 1.5 × 10^4 CHO-GPR35 or 2.5 × 10^4 HEK293-GLP-1R cells/well and cultured for 24 h. The culture medium in the 384-well biosensor plates was replaced with 30 μl of Hank’s balanced salt solution (1 × HBSS) and then further incubated inside the system for 1 h before measurement. For the dynamic mass redistribution (DMR) agonism assay, a 2-min baseline was first established, followed by adding compounds using the multi-channel pipette, and the compound-triggered DMR responses were recorded for approximately 1 h. […] For DMR antagonism assay, cells were initially treated with either an antagonist or compound for 1 h in GPR35 and 90 min in GLP-1R assays, respectively. […] All DMR responses were background-corrected.

Assay [2] has as its target T1, hGPR35. The assay can be described thus: DMR agonism assay in CHO-GPR35 cells. In kind it is cell-based. As to the method: as §1, §2

Where two headings read alike, the source gives them in different places.

T1 sequence (Q9HC97 whole entry): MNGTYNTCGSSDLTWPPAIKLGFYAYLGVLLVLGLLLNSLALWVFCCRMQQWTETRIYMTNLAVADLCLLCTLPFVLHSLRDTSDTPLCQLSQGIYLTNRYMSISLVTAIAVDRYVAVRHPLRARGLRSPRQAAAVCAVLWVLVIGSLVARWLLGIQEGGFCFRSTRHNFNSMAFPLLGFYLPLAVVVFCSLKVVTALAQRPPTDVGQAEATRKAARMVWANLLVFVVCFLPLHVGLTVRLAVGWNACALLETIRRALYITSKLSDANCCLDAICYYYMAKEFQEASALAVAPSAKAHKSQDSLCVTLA

On to `CC(C)NC(=O)c1cccc(-c2noc(CCc3c[nH]c4ccccc34)n2)c1` [F545-1970], for which the “GPR35 receptor activity (result in words)” value at hGPR35 [1] is listed as “GPR35 receptor antagonistic activity, with relatively weak activity”. The IC50 on hGPR35 [1] (read-out: IC50 (hGPR35, DMR desensitization)) was found to be 38.8 µM. For the same compound, the “compound-triggered DMR signal in CHO-GPR35 cells” value on hGPR35 [2] is reported as “do not show a significant increase in DMR signal”.

`COCC12CCN(c3ccc(C#N)c(C(F)(F)F)c3)CC1CN(C(=O)CCc1ccccc1)C2` (stereo not drawn) [S948-0241]: at hGPR35 [1], the IC50 was 67.9 µM and the “GPR35 receptor activity (result in words)” value is given as “GPR35 receptor antagonistic activity, with relatively weak activity”. Moreover, the “compound-triggered DMR signal in CHO-GPR35 cells” value at hGPR35 [2] is “do not show a significant increase in DMR signal”.

For orientation: IC50 means the concentration needed to halve the response being measured.
